Data from patent publication US20210024520A1, “THERAPEUTIC AGENT FOR LCAT DEFICIENCY” (DAIICHI SANKYO COMPANY, LIMITED, priority 2018, published 2021).
Where a chain is given by its changes, count along the chain named.

Legend:
Type in all cases: biochemical
[1] = target: T1, mutant LCAT protein N228K (Homo sapiens, UniProt P04180, N252K); test: Measurement of LCAT activity using LCAT mutant protein N228K (FLD), reconstituted HDL with [14C]-cholesterol; conditions: for Measured value of LCAT activity Mean ± standard error (n = 6): 37° C. 1 hour, radioactivity of cholesterol ester
T1 construct: made in house; host or cells: HEK293 cells (culture supernatant)
T1 sequence (P04180 25-440 N252K): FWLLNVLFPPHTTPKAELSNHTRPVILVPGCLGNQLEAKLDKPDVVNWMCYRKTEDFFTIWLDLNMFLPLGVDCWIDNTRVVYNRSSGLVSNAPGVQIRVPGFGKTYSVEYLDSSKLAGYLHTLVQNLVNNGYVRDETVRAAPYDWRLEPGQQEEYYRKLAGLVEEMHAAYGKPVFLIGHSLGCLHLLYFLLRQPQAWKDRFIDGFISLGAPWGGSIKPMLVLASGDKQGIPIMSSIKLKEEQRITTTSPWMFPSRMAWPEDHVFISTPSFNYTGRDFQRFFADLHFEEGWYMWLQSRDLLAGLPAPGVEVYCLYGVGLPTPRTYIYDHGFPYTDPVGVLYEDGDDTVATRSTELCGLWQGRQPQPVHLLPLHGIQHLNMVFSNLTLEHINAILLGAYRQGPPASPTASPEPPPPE
Protocol: (§1) Mutant LCAT proteins, reported on gene mutations among patients with familial LCAT deficiency (FLD) and patients with fish eye disease (FED), were expressed in HEK293 cells, and the mutant LCAT proteins were purified from the culture supernatant and used as enzyme sources. HDL was reconstituted with phosphatidylcholine, [14C]-labelled cholesterol, and apolipoprotein A-I and used as a reactive substrate. The test compound was prepared by being dissolved in dimethyl sulfoxide. To a mixture of 7 μL of the mutant LCAT protein solution (concentration 0.034 μg/μL), 1 μL each of PBS containing 10% bovine serum albumin or mercaptoethanol, and 40 μL of the above-mentioned reconstituted HDL was further added 1 μL of the test compound (final concentration 1 or 10 μM) to prepare 50 μL of a mixture in total. The mixture was incubated at 37° C. for 1 hour and subsequently a mixed solution of hexane and isopropanol (mixing ratio=3:2) was added to stop the reaction. Water was added and stirred, and subsequently the hexane layer was collected and concentrated to dryness. A chloroform solution (concentration 10 mg/mL) was added thereto, spotted on a silica gel thin-layer plate and developed with a mixed solution of hexane, diethyl ether and ethyl acetate (mixing ratio=85:15:2). Radioactivity of a portion corresponding to the cholesterol ester separated on each lane by the development on the silica gel thin-layer plate was measured using an imaging analyzer BAS-2500 (manufactured by FUJIFILM Corporation). Radioactivities with and without the test compound were compared to calculate the ratio of LCAT activity with the addition of the test compound to that without the addition of the test compound for each of the mutant proteins. Additionally, the presence and absence of significant differences in both cases were statistically evaluated using t-test or Dunnett multiple comparison test.

[2] = target: T2, mutant LCAT protein N131D (Homo sapiens, UniProt P04180, N155D); test: Measurement of LCAT activity using LCAT mutant protein N131D (FED), reconstituted HDL with [14C]-cholesterol; conditions: compound concentration 1 μM
T2 construct: made in house; host or cells: HEK293 cells (culture supernatant)
T2 sequence (P04180 25-440 N155D): T1 sequence (P04180 25-440 N252K) with N131D, K228N
Protocol: as §1, with “Water was added and stirred, and subsequently the hexane layer was collected and concentrated to dryness. A chloroform solution (concentration 10 mg/mL) was added thereto, spotted on a silica gel thin-layer plate and developed with a mixed solution of hexane, diethyl ether and ethyl acetate (mixing ratio=85:15:2).” left out, “Radioactivities with and without the test compound were compared to calculate the ratio of LCAT activity with the addition of the test compound to that without the addition of the test compound for each of the mutant proteins.” left out

[3] = target: T3, mutant LCAT protein T1231 (Homo sapiens, UniProt P04180, T147I); test: Measurement of LCAT activity using LCAT mutant protein T1231 (FED), reconstituted HDL with [14C]-cholesterol; conditions: compound concentration 1 μM
T3 construct: made in house; host or cells: HEK293 cells (culture supernatant)
T3 sequence (P04180 25-440 T147I): T1 sequence (P04180 25-440 N252K) with T123I, K228N
Protocol: as §1, with “Water was added and stirred, and subsequently the hexane layer was collected and concentrated to dryness. A chloroform solution (concentration 10 mg/mL) was added thereto, spotted on a silica gel thin-layer plate and developed with a mixed solution of hexane, diethyl ether and ethyl acetate (mixing ratio=85:15:2).” left out, “Radioactivities with and without the test compound were compared to calculate the ratio of LCAT activity with the addition of the test compound to that without the addition of the test compound for each of the mutant proteins.” left out

[4] = target: T4, mutant LCAT protein P10Q (Homo sapiens, UniProt P04180, P34Q); test: Measurement of LCAT activity using LCAT mutant protein P10Q (FED), reconstituted HDL with [14C]-cholesterol; conditions: compound concentration 1 μM
T4 construct: made in house; host or cells: HEK293 cells (culture supernatant)
T4 sequence (P04180 25-440 P34Q): T1 sequence (P04180 25-440 N252K) with P10Q, K228N
Protocol: as §1, with “Water was added and stirred, and subsequently the hexane layer was collected and concentrated to dryness. A chloroform solution (concentration 10 mg/mL) was added thereto, spotted on a silica gel thin-layer plate and developed with a mixed solution of hexane, diethyl ether and ethyl acetate (mixing ratio=85:15:2).” left out, “Radioactivities with and without the test compound were compared to calculate the ratio of LCAT activity with the addition of the test compound to that without the addition of the test compound for each of the mutant proteins.” left out

[5] = target: T5, mutant LCAT protein Y156N (Homo sapiens, UniProt P04180, Y180N); test: Measurement of LCAT activity using LCAT mutant protein Y156N (FLD), reconstituted HDL with [14C]-cholesterol; conditions: for Measured value of LCAT activity Mean ± standard error (n = 6): 37° C. 1 hour, radioactivity of cholesterol ester
T5 construct: made in house; host or cells: HEK293 cells (culture supernatant)
T5 sequence (P04180 25-440 Y180N): T1 sequence (P04180 25-440 N252K) with Y156N, K228N
Protocol: as §1

[6] = 37° C. 1 hour, radioactivity of cholesterol ester

O=C1Nc2[nH]nc(C3CCN(c4cnc(C(F)(F)F)nc4)CC3)c2[C@@H](C(F)(F)F)[C@H]1O [test compound, (+)-Cis-5-hydroxy-4-(trifluoromethyl)-3-{1-[2-(trifluoromethyl)pyrimidin-5-yl]piperidin-4-yl}-1,4,5,7-tetrahydro-6H-pyrazolo[3,4-b]pyridin-6-one]
LCAT activity ratio of case of compound addition to no-addition control ([1]; compound concentration 1 μM): 2.80 | Measured value of LCAT activity Mean ± standard error (n = 6) ([1]; compound concentration 1 μM): 634.17 ± 66.62 | LCAT activity ratio of case of compound addition to no-addition control ([1]; compound concentration 10 μM): 2.76 | Measured value of LCAT activity Mean ± standard error (n = 6) ([1]; compound concentration 10 μM): 625.22 ± 41.03 | LCAT activity ratio of case of compound addition to no-addition control [2]: 3.19 | Measured value of LCAT activity Mean ± standard error (n = 6) [2, 6]: 1308.38 ± 259.22 | LCAT activity ratio of case of compound addition to no-addition control [3]: 3.75 | Measured value of LCAT activity Mean ± standard error (n = 6) [3, 6]: 3263.11 ± 521.27 | LCAT activity ratio of case of compound addition to no-addition control [4]: 3.83 | Measured value of LCAT activity Mean ± standard error (n = 6) [4, 6]: 2908.25 ± 429.42 | LCAT activity ratio of case of compound addition to no-addition control ([5]; compound concentration 1 μM): 1.83 | Measured value of LCAT activity Mean ± standard error (n = 6) ([5]; compound concentration 1 μM): 447.36 ± 47.06 | LCAT activity ratio of case of compound addition to no-addition control ([5]; compound concentration 10 μM): 1.82 | Measured value of LCAT activity Mean ± standard error (n = 6) ([5]; compound concentration 10 μM): 443.20 ± 36.83
